{
  "source": "patent US20250268971A1",
  "about": "“SAFFRON AS ANTI-INFLAMMATORY AGENT IN TREATING INFLAMMATORY BOWEL DISEASE” (HOWARD UNIVERSITY, priority 2020, published 2025)",
  "system": "human PBMCs T cells",
  "assay": "Human PBMCs T cells pro-inflammatory cytokine secretion (flow cytometry)",
  "assay_type": "cell-based",
  "method": "A 48 well plate was coated with human anti-CD3 antibody (1 μg/ml) overnight. After washing with 1×PBS, plates were coated with human PBMCs (0.5×10^6 cells/well), human anti-CD28 (1 μg/ml), β-mercaptoethanol (1 μg/ml), different concentrations of Saffron aqueous extract (250 μg/ml, 500 μg/ml) and other constituents of saffron, Safranal (500 μM, 1 mM) (Sigma Aldrich, USA). The human PBMCS of 0.5×10^6 cells/well PBMCs were seeded in 48 well microplates in RPMI-1640 (Sigma, USA) supplemented with 10% fetal bovine serum and 1% penicillin/streptomycin at 37° C. and in 5% CO2) (day 0). At day 3, cells were stimulated with phorbol myristate acetate (PMA; 50 ng/ml)+ Ionomycin (1 μg/ml)+ Brefeldin A (1X) for 4 hrs. and cells were harvested and stained for flow cytometry. The human specific antibodies for T cells (dye; Zombi Aqua, CD45 PerCP 5.5, CD3 BV421, CD4 PETR, CD127-PECy7, CD25 BV605, CD8a AF488 and pro-inflammatory cytokines, like TNF-α AF700, IFNg APC, IL4 PE) were used to stain the PBMC cells.\nIn CD8+ T cells, TNFα+ expression was reduced in presence of SFE dose 500 μg/ml and safranal doses (500 μM, 1 mM) only, while IFNg+ expression was reduced in all tested doses of SFE and safranal in comparison to stimulated human PBMCs treated with media.",
  "data": [
    {"smiles": "CC1=C(C=O)C(C)(C)CC=C1", "note": "[safranal, Safranal]", "values": [
      {"measurement": "TNFα+ expression in CD8+ T cells", "setting": "SFE 500 μg/ml only, safranal 500 μM, 1 mM, vs media treated stimulated PBMC", "result": "reduced"},
      {"measurement": "TNFα+ in CD4+ T cells", "setting": "SFE 250 and 500 μg/ml, safranal 500 μM, 1 mM, anti-CD3/CD28, PMA+ionomycin stimulated, vs media", "result": "inhibitory response"},
      {"measurement": "IFNg+ in CD4+ T cells", "setting": "SFE 250 and 500 μg/ml, safranal 500 μM, 1 mM, vs media treated stimulated PBMC", "result": "inhibitory response"},
      {"measurement": "IFNg+ expression in CD8+ T cells", "setting": "all tested doses (SFE 250, 500 μg/ml; safranal 500 μM, 1 mM), vs media", "result": "reduced"}
    ]}
  ]
}
